From US10183032B2, “Methods for treating bacterial infection” (Ball State Innovation Corporation, priority 2012, dated 2019) come the findings set out here.

In one assay the test system is Staphylococcus aureus. As to the kind of experiment: Staphylococcus aureus host cell invasion assay in HUVEC, flow cytometry. In kind it is cell-based. Here is the method:
In one embodiment, human umbilical vein endothelial cells (HUVEC, Life Technologies) are cultured in M200 medium supplemented with LSGS. RAW 264.7 cells (American Type Culture Collection, ATCC, Manassas, Va.) are cultured in RPMI supplemented with 10% FBS and L-glutamine. All cell types are maintained at 5% CO2, 37° C., in 75 cm^2 vented cap flasks (Thermo-Fisher). For assays, cultured cells are plated at 1×10^5 cells/ml in 35 mm culture dishes coated with Attachment Factor. The next day, cells are pretreated in culture medium containing the vehicle control or ML 141. For compound delivery, ML 141 first is suspended into DMSO or into PEG at a concentration of 5 mM. The 5 mM solution is diluted to 1 mM in the solvent and then diluted to the final concentration for each experiment in either serum-containing or serum-free medium. For vehicle control treatment, the same volume of PEG or DMSO as that of ML 141 is added to medium. The following day, the invasion assay is performed. For the shorter duration experiments, compound is added on the same day as the invasion assay, 1 hour prior to bacteria.
In another embodiment, HUVEC (Millipore, Billerica, Mass.) are cultured in EndoGRO LS Complete Media (Millipore) and are maintained at 5% CO2, 37° C., in 75 cm^2 vented cap flasks (Thermo-Fisher). For the invasion assay, cultured cells are plated at 1×10^4 cells/ml in 96-well culture dishes coated with Attachment Factor. The next day, cells are pretreated in culture medium containing the vehicle control, ML 141, or ML 141 structural analog. For compound delivery, ML 141 and structural analogs first are suspended into PEG at a concentration of 5 mM. The 5 mM solution is diluted to 1 mM in the solvent and then is diluted to the final concentration for each experiment in serum containing medium. For vehicle control treatment, the same volume of PEG as that of ML 141 or of ML 141 structural analog is added to the medium. The following day, the invasion assay is performed. Bacteria are added directly to medium containing vehicle control, ML 141, or the ML 141 structural analog.
Two days prior to the assay, TSB is inoculated with S. aureus (American Type Culture Collection #29213) and incubated overnight (225 rpm, 37° C.). Bacteria are subcultured the next day into fresh TSB. On the day of the assay, bacteria are pelleted (10000×g, 37° C., 3 min), are washed in saline, are pelleted as above, are resuspended in saline, then fluorescently labeled by incubation with rabbit anti-mouse IgG Alexa Fluor 488 (final concentration 8 μg/ml, RT, 20 min). Protein A, a S. aureus cell surface protein, avidly binds IgG thereby labeling the bacteria. Labeled bacteria are washed twice as above and are resuspended to 3×10^8 CFU/ml in saline. Host cells are incubated with the bacteria for 1 hour (1.2×10^8 CFU/ml for same-day recovery, 5×10^6 for recovery after 48 hours, 1.4×10^7 CFU/ml; 5% CO2, 37° C.). Following infection, extracellular bacteria are removed by extensive washes with PBS and incubation of the host cells with antimicrobials that have limited mammalian membrane permeability (lysostaphin, 20 μg/ml and gentamicin, 50 μg/ml; 45 min for same-day recovery studies, 48 hours for 2-day recovery studies; 5% CO2, 37° C.). To detect the level of infection using flow cytometry, cells that have been infected with fluorescently-labeled bacteria are washed extensively with PBS, lifted from 96-well plate by incubation with trypsin, washed extensively in FACS buffer (2% BSA/0.1% sodium azide/PBS), fixed (FACS buffer containing 0.74% formaldehyde), and are counted using an Accuri flow cytometer (BD, Franklin Lakes, N.J.). They are also lifted from culture dishes using cell scrapers, pelleted, fixed (1% BSA/0.74% formaldehyde/PBS), and are counted using an Accuri flow cytometer. For enumeration of the infecting bacteria, intracellular bacteria are released from host cells using 1% saponin/PBS (20 min, 5% CO2, 37° C.) and serial dilutions are plated on TSA (16 hours, 37° C.). […]

The test system of the next assay is fibronectin. Nature of the assay: Fibronectin adhesion assay, HUVEC. In kind it is cell-based, human. Particulars: ML 141 10 μM, 18-20 h; re-plated 2 h; vehicle 24±4%. Here is the method: FIG. 10C is a graph illustrating that ML 141 decreases cell adhesion to fibronectin-coated surface. HUVEC were pretreated as in FIGS. 10A and 10B, lifted from culture dishes using cell scrapers, and re-plated (2 h) onto non-tissue culture treated plates coated with fibronectin and blocked with bovine serum albumin. Following extensive washes, cells were recovered using trypsin and counted using an Accuri C6 flow cytometer (*p<0.05 by t-test on log-transformed data pooled from 2 independent experiments, n=8/treatment).
HUVEC were plated and pretreated as described for the invasion assay. 96-well, non-tissue culture treated plates (Sarstedt, Newton, N.C.) were coated with fibronectin (20 μg/ml; 2 h; 37° C.), washed with PBS, and blocked with bovine serum albumin (2%, 30 min, RT). HUVEC were lifted from the 35 mm dishes using cell scrapers, 100 μl counted for normalization using the Accuri C6, and 200 μl transferred to the 96-well plate (2 h, 5% CO2, 37° C.). After extensive washes in PBS, cells were removed from the plate using trypsin, washed in FACS buffer, fixed, and 100 μl counted. These cell counts were normalized to those that had been taken prior to plating on the fibronectin-coated plate.

For orientation: inhibition means the change of the read-out against control, counted positive when it falls.

`COc1ccc(C2CC(c3ccccc3)=NN2c2ccc(S(N)(=O)=O)cc2)cc1` (stereo not drawn) [ML 141, 4-[3-(4-methoxyphenyl)-5-phenyl-3,4-dihydropyrazol-2-yl]benzenesulfonamide]: in the assay with Staphylococcus aureus (ML 141 10.0 μM in PEG, 18 hours, HUVEC infected 1 hour), the decrease of invasion entry is listed as “more than 80%”. In addition, in the assay on Staphylococcus aureus (Staphylococcus aureus, HUVEC, 18 h, read-out: inhibition of invasion), the inhibition at 10 µM is roughly 50%. For the same compound, the “adherence of HUVEC to fibronectin-coated plates” value in the assay with fibronectin is given as 14±2%.
